Experimental data from US20260374818A1, “CATIONIC PEPTIDES WITH BROAD SPECTRUM ACTIVITY” (priority 2023, published 2026).
In brackets after ≈: the same amount, converted by molar mass. Where a SMILES comes first, the peptide text is derived from it. [ ]: non-standard residue; d: D form.

How the values were obtained:
[1] = tested on: P. aeruginosa PAO1 biofilms; conditions: for minimum inhibitory concentration of peptide that inhibited at least 90% of biofilm growth (MBIC90): P. aeruginosa PAO1 biofilms, >95% pure peptides, BM2 minimal media; for minimum inhibitory concentration of peptide that inhibited at least 90% of biofilm growth (MBIC90) / IC50: crystal violet; for IC50: read-out: Biofilm Inhibition IC50, PAO1, 24 hours
E. coli O157:H7 = assay: Biofilm inhibition (at least 80%), E. coli; assay type: cell-based, Escherichia coli; conditions: n = 3, BM2 minimal media, 18-24 hours, crystal violet
[2] = tested on: Staphylococcus epidermidis; assay: MIC (broth microdilution) of peptides, S. epidermidis; assay type: cell-based; conditions: mode of three biological replicates
Protocol: (§1) Minimal inhibitory concentration (MIC) against planktonic bacteria: The MIC of the synthetic peptides was determined in Mueller-Hinton broth (MHB) using the broth microdilution method described previously [Wiegand, I., Hilpert, K., & Hancock, R. E. (2008). Agar and broth dilution methods to determine the minimal inhibitory concentration (MIC) of antimicrobial substances. Nature Protocols, 3(2), 163-175]. Briefly, 10 μl of a 10× concentrated peptide solution was placed in the bottom of a well in a 96-well polypropylene round bottom plate (Corning Inc.). A bacterial suspension of ~5×10^5 CFU/ml was prepared from an overnight culture and 90 μl of this was added to each well. […] Bacteria tested included P. aeruginosa PAO1, MRSA USA300 LAC, Staphylococcus haemolyticus, Staphylococcus epidermidis, Klebsiella pneumoniae and Streptococcus salivarius.
(§2) Finally, the AB103-D derivatives that were the least aggregation prone and which produced the lowest toxic effects in vivo were evaluated for their direct antibacterial activity towards several pathogens of clinical relevance using a standard minimum inhibitory concentration (MIC) assay [Wiegand, I., Hilpert, K., & Hancock, R. E. (2008). Agar and broth dilution methods to determine the minimal inhibitory concentration (MIC) of antimicrobial substances. Nature Protocols, 3(2), 163-175]. Specifically, peptides AB110-D, AB111-D, AB114-D and AB115-D were tested against P. aeruginosa PAO1, MRSA USA 300, Staphylococcus haemolyticus, Staphylococcus epidermidis, Klebsiella pneumoniae and Streptococcus salivarius and compared against the antibacterial activity of DJK-5 and AB103-D (Table 7). Overall, the antibacterial potency of all of the AB103-D derivatives was stronger than that seen for DJK-5, particularly in the case of the Gram-negative pathogens P. aeruginosa and K. pneumoniae. […]

MRSA planktonic cells = assay: Planktonic inhibition by AB103-D single substitution variants, MRSA; assay type: cell-based, methicillin resistant Staphylococcus aureus; conditions: read-out: IC50 of AB103-D alone, planktonic
Description: A series of single amino acid substitution variants of the AB103-D peptide were generated on cellulose arrays using SPOT-synthesis technology [Hilpert, K., Winkler, D. F., & Hancock, R. E. W. (2007). Peptide arrays on cellulose support: SPOT synthesis, a time and cost efficient method for synthesis of large numbers of peptides in a parallel and addressable fashion. Nature Protocols, 2(6), 1333-1349; Frank, R. (2002). The SPOT-synthesis technique. Synthetic peptide arrays on membrane supports-principles and applications. J Immunol Methods, 267(1), 13-26] to test for enhanced Gram-negative activity against P. aeruginosa and determine which residues contribute to the antibiofilm effects of this peptide. 96 AB103-D variants were generated by replacing each residue in the parent peptide with one of D-Arg, D-Lys, D-Glu, Gly, D-Ala, D-Ile, D-Leu, D-Val and D-Trp. The biofilm inhibitory activity of all 96 AB103-D variants was subsequently assessed against MRSA USA300 LAC or P. aeruginosa PAO1 in a microtitre plate assay [Haney, E. F., Trimble, M. J., & Hancock, R. E. W. (2021). Microtiter plate assays to assess antibiofilm activity against bacteria. Nature Protocols, 16(5), 2615-2632]. […].

MRSA preformed biofilms = assay: Biofilm eradication of 24-hr preformed biofilms (TTC metabolic dye), MRSA; assay type: cell-based, methicillin resistant Staphylococcus aureus; conditions: 24-hr preformed biofilms treated overnight
PAO1 preformed biofilms = conditions: for IC50: read-out: Biofilm Eradication IC50, PAO1, 24-hr preformed biofilms treated overnight, TTC
[3] = Subdermal murine toxicity model; conditions: for Clinical score: 1 hour after subcutaneous administration, comparator DJK-5
Procedure, shortened: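 Peptides given subdermally to shaved, depilated, isoflurane-anaesthetised female CD-1 mice (8 weeks, 25±5 g) at 4 mg/kg. Summed clinical scores taken at 1 h; cyst or lesion presence and caliper size recorded at 16 h. Values are the mean of two independent replicates.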

MRSA USA300 biofilms = assay: Biofilm inhibition by >95% pure peptides (crystal violet), MRSA; assay type: cell-based, methicillin resistant Staphylococcus aureus; conditions: for minimum inhibitory concentration of peptide that inhibited at least 90% of biofilm growth (MBIC90): MRSA USA300 biofilms, >95% pure peptides, 10% TSB + 0.1% glucose; for IC50: MRSA, 24 hours
Klebsiella pneumoniae = assay: MIC (broth microdilution) of peptides, K. pneumoniae; assay type: cell-based; conditions: mode of three biological replicates
Protocol: as §1, §2

| SMILES | Biofilm inhibition activity compared to DJK5 ([1]; P. aeruginosa) | minimum inhibitory concentration of peptide that inhibited at least 90% of biofilm growth (MBIC90) [1] | IC50 [1] | Peptide/Antibiotic Concentration where at least 80% of biofilm growth was inhibited (E. coli O157:H7) | MIC [2] | IC50 (MRSA planktonic cells) | IC50 (MRSA preformed biofilms) | Enhanced antibiofilm eradication activity (PAO1 preformed biofilms; P. aeruginosa, compared with DJK5) | IC50 (PAO1 preformed biofilms) | Clinical score [3] | Average cyst size compared to DJK-5 ([3]; 16 hours after administration, 4 mg/kg) | minimum inhibitory concentration of peptide that inhibited at least 90% of biofilm growth (MBIC90) (MRSA USA300 biofilms) | IC50 (MRSA USA300 biofilms) | MIC (Klebsiella pneumoniae) |
| --- | --- | --- | --- | --- | --- | --- | --- | --- | --- | --- | --- | --- | --- | --- |
| CC[C@@H](C)[C@@H](NC(=O)[C@@H](C)NC(=O)[C@@H](CCCNC(=N)N)NC(=O)[C@@H](Cc1c[nH]c2ccccc12)NC(=O)[C@@H](CCC(N)=O)NC(=O)[C@H](NC(=O)[C@@H](CCCNC(=N)N)NC(=O)[C@H](NC(=O)[C@H](NC(=O)[C@@H](CCCNC(=N)N)NC(=O)[C@H](NC(=O)[C@H](N)CCCNC(=N)N)C(C)C)C(C)C)[C@H](C)CC)C(C)C)C(N)=O [AB103-D, rvrvirvqwrai-NH2] (H-[dR][dV][dR][dV][dI][dR][dV][dQ][dW][dR][dA][dI]-NH2) | ≥ 4 fold | 8 µM | 1900 nM | 1 µg/mL | 0.8 µg/mL (≈ 0.516 µM) | 1960 nM | 2200 nM | > 2 fold | 1700 nM | < 2 | smaller than those induced by DJK-5 | 1 µM | 340 nM | 0.8 µg/mL (≈ 0.516 µM) |
| CC[C@@H](C)[C@@H](NC(=O)[C@@H](C)NC(=O)[C@@H](CCCNC(=N)N)NC(=O)[C@@H](Cc1c[nH]c2ccccc12)NC(=O)[C@@H](CCC(N)=O)NC(=O)[C@H](N)C(C)C)C(=O)N[C@H](CCCNC(=N)N)C(=O)N[C@@H](C(=O)N[C@H](CCCNC(=N)N)C(=O)N[C@@H](C(=O)N[C@@H](C(=O)N[C@H](CCCNC(=N)N)C(N)=O)[C@H](C)CC)C(C)C)C(C)C [DJK5, vqwrairvrvir-NH2] (H-[dV][dQ][dW][dR][dA][dI][dR][dV][dR][dV][dI][dR]-NH2) |  | 16 µM | 7400 nM | 1 µg/mL | 0.8 µg/mL (≈ 0.516 µM) |  | 1600 nM |  | 3800 nM | 2 |  | 0.5 µM | 350 nM | 3 µg/mL (≈ 1.93 µM) |
